Laboratory results taken from patent publication US20220111034A1, “VIRUS COMPOSITIONS” (priority 2019, published 2022).

Legend:
[1] = system: cocultured CHO-JAM-A and Lec2-JAM-A cells; test: Single particle tracking by dynamic confocal microscopy; type: cell-based
Description: A coculture of Lec2-JAM-A mCherry and CHO-JAM-A cells was seeded onto a 47-mm glass-bottomed petri dish (WillCo Wells) 1 or 2 d before the experiment to ensure formation of a confluent monolayer on the day of the experiment. Cells were imaged by laser scanning confocal microscopy using a Zeiss LSM 880 microscope with a 561 nm laser for mCherry and a 488 nm laser for Alexa488 and a 40× oil objective (NA=0.95). All experiments were conducted at room temperature with cells maintained in Ham's F12 culture medium and a gas mixture of synthetic air with 5% CO2 at 95% relative humidity that was infused at 0.1 L min^−1 into the microscopy chamber using a gas humidifier membrane (PermSelect silicone). The humidity was controlled using a humidity sensor (Sensirion). To ensure virus binding (and not internalization), the cells were placed on ice for 30 min before starting the experiment. After finding an area in which both cell types were adjacent (guided by fluorescence), Alexa488-labelled T3SA+ or T3SA− viruses (10^12 particles/mL) diluted in either F12 Ham's culture medium or 1 mM Neu5Ac solution (on ice) were added to the living cells. The fluorescent signal from both dyes (mCherry and Alexa488) as well as the signal from the PMT channel was recorded for a ˜30 min interval immediately after virus injection at a frame-rate of one image every 13.32 seconds. During recording, the focus was kept constant on the upper surface of cells. Fluorescence images were exported as 12-bit TIFF files, merged into a movie, and further processed using ImageJ (National Institutes of Health, Bethesda). Trajectories were harvested and analyzed using MTrackJ, an ImageJ plugin to track moving viral particles in the movie and obtain track statistics. The latter were further processed using Origin.

[2] = system: JAM-A; test: Biolayer interferometry (BLI) of JAM-A-reovirus interactions; type: binding; conditions: 1 mM free glycan
Description: Virus binding to JAM-A was measured on a BLItz® (Pall ForteBio) biolayer interferometer equipped with a Ni2+-NTA biosensor (Pall ForteBio). After loading the chip in a 10 mM NiCl2 solution for 2 min and running an initial baseline step in milliQ water (1 min), JAM-A (0.2 mg mL^−1) was immobilized on the exposed Ni^2+ ions via its C-terminal His6 tag for 5 min until the binding signal reached a plateau (complete saturation of the biosensor). Binding of viral particles (T3SA+, T3SA− or ISVP; at 16 nM) in the absence or presence of 1 mM Neu5Ac was measured during a 10 min association step after another baseline step (virus buffer for 1 min). Dissociation was monitored directly after the association step for 10 min during which the virus solution was exchanged with virus buffer. Chip can be regenerated several times by exposing the biosensor to 10 mM Glycine pH 1.7 followed by a neutralization buffer (Kinetics Buffer). The resulting sensorgram (binding over time) was processed and fitted with a nonlinear regression approach using an association and then dissociation fit provided by GraphPad Prism. Virus concentration and time at which dissociation was initiated were constrained to constant values of 16 nM and 17 min, respectively. From that fit, koff and kon were extracted and KD was calculated.

[3] = system: CHO cells; test: FD-based AFM with virus-functionalized tip on living CHO cells (cocultured with Lec2); type: cell-based; conditions: 1 mM, same area rescanned, FIG. 14i-l
Description: NHS-PEG27-acetal linkers were used to functionalize AFM tips as described (Gruber. Crosslinkers and Protocols for AFM Tip Functionalization. https://wwwjku.at/institut-fuer-biophysik/forschung/linked, 2018; Wildling et al. Linking of sensor molecules with amino groups to aminofunctionalized AFM tips. Bioconjug. Chem. 2011, vol. 22, 1239-1248). AFM tips (PFQNM-LC and MSCT probes, Bruker) were immersed in chloroform for 10 min, rinsed with ethanol, dried with a stream of filtered nitrogen, cleaned for 10 min using an ultraviolet radiation and ozone (UV-0) cleaner (Jetlight), and immersed overnight in an ethanolamine solution (3.3 g of ethanolamine hydrochloride in 6.6 mL of DMSO). […]
Correlative images were acquired on an AFM (Bioscope Catalyst and Bioscope Resolve, Bruker) operated in the PeakForce QNM mode (Nanoscope software v9.2) to conduct FD-based AFM and coupled to an inverted epifluorescence microscope (Zeiss Observer Z.1) as described (Newton et al. 2017, supra; Knoops et al. Specific Interactions Measured by AFM on Living Cells between Peroxiredoxin-5 and TLR4: Relevance for Mechanisms of Innate Immunity. Cell chemical biology 2018, vol. 25, 550-559, e553). […] Overview images of cell surfaces (20-30 μm^2) were recorded at imaging forces of ˜500 pN using PFQNM-LC probes (Bruker) having tip lengths of 17 μm, tip radii of 65 nm, and opening angles of 15°. […]

CC(=O)N[C@H]1[C@H]([C@H](O)[C@H](O)CO)OC(O)(C(=O)O)C[C@@H]1O (some centres unmarked) [Neu5Ac, N-acetylneuraminic acid]
number of T3SA+ particles bound to CHO-JAM-A cells ([1]; 1 mM free SA, FIG. 10g): significantly increased
diffusion potential of T3SA+ particles on the cell surface ([1]; 1 mM glycan injected with viral particles, FIG. 10f): significant decrease of their diffusion potential
effect of free SA on diffusion and bound particles of T3SA− ([1]; 1 mM, FIG. 10g): this effect was not observed
influence on T3SA− binding to JAM-A [2]: had no influence
adhesion events of T3SA+ after injection of blocking glycan [3]: significant reduction of adhesion events
